According to ChEMBL document CHEMBL1156404, “Haploscleridamine, a novel tryptamine-derived alkaloid from a sponge of the order haplosclerida: an inhibitor of cathepsin K” (J Nat Prod, 2002):
pIC50: −log10 of the molar value.

Biological target: T1, Cathepsin K (Homo sapiens, UniProt P43235)
T1 sequence (P43235 whole entry): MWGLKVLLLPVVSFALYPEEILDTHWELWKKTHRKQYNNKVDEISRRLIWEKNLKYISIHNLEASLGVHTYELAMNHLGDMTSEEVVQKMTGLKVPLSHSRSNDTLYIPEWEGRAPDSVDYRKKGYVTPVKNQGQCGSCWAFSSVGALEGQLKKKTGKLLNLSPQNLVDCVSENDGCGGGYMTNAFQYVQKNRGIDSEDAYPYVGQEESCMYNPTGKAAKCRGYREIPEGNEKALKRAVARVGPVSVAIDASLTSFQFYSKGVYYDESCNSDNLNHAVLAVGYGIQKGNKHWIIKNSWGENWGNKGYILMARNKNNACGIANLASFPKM
Experiment: Inhibition of cathepsin K by fluorimetric assay

c1ccc2c3c([nH]c2c1)C(Cc1c[nH]cn1)NCC3 (configuration not stated) [HAPLOSCLERIDAMINE]
pIC50: 4.59

NCCc1c[nH]c2ccccc12 [TRYPTAMINE]
pIC50: 4.82
